# Assay results taken from patent US10561736B1, “Apoptosis inhibitor formulations for prevention of hearing loss” (Spiral Therapeutics, Inc., priority 2019, dated 2020).
# Entries after “also recorded” stand apart in the source; their conditions may differ.
# What was measured:
# [1] = metabolic profile in hepatic fractions; type: in vitro ADME, human, dog, rabbit, rat, and mouse; details: phase I biotransformation pathways
# Experimental: The metabolic profile and stability of LPT99 was characterized in human, dog, rabbit, rat, and mouse microsomal and S9 fractions, and in human cytosolic fractions. LPT99 was extensively metabolized (>90% metabolized after 1 hour) in microsomal and S9 hepatic fractions in all tested species. Up to nine (9) metabolites were formed through phase I biotransformation pathways. The most abundant metabolites were identified as single hydroxylation, double hydroxylation, and demethylation plus double hydroxylation. […] In the rabbit S9 fraction, the quantity of detected metabolites was less than in the human S9 fraction.
# opioid (mOP) = opioid (mOP) (Homo sapiens, UniProt P35372); experiment: off-target selectivity panel; type: binding
# Experimental: (§1) To identify off-target activities of LPT99, its selectivity against a panel of receptors (44 G-protein-coupled receptors [GPCR] and 4 non-GPCR), 4 ion channels, and 3 transporters were analyzed. The cell line, HEI-OC1 (house ear institute organ of Corti 1), which expresses several characteristic markers of the organ of Corti sensory cells (Kalinec, et al., Audiol. Neurootol. 2003, 8(4), 177-89), was used to evaluate the efficacy of LPT99 in preventing apoptosis due to […]. Cells were pre-incubated with LPT99, followed by […] for 24 hours.
# (§2) For 14 of the tested targets-adenosine receptor 3 (A3); cholecystokinin: cholecystokinin receptor 1 (CCK1); melatonin receptor (MT1); neurokinin (NK2 and NK3); opioid (kOP and mOP); serotonin receptors (5HT-1A, 5HT-2A, 5HT-2B and 5HT-7); and vasopressin (ViA; Na+channel site 2 and C1-GABA-gated channel)—the LPT99 affinity was >50%. At 1 μM, the inhibition of 13 of these targets was <50%, indicating a very low affinity with LPT99.
# [2] = system: panel of receptors (44 GPCR and 4 non-GPCR), 4 ion channels, and 3 transporters; experiment: off-target selectivity panel; type: binding; details: 10 μM
# Experimental: as §1, §2
# neurokinin (NK3) = neurokinin (NK3) (Homo sapiens, UniProt P29371); experiment: off-target selectivity panel; type: binding
# Experimental: as §1, §2
# neurokinin (NK2) = neurokinin (NK2) (Homo sapiens, UniProt P21452); experiment: off-target selectivity panel; type: binding
# Experimental: as §1, §2
# [3] = biological target: adenosine receptor 3 (A3) (Homo sapiens, UniProt P0DMS8); experiment: off-target selectivity panel; type: binding
# Experimental: as §1, §2
# [4] = biological target: serotonin receptor 5HT-1A (Homo sapiens, UniProt P08908); experiment: off-target selectivity panel; type: binding
# Experimental: as §1, §2
# [5] = biological target: serotonin receptor 5HT-2B (Homo sapiens, UniProt P41595); experiment: off-target selectivity panel; type: binding
# Experimental: as §1, §2
# [6] = system: noise-induced ABR threshold shift; experiment: noise trauma ABR threshold study (FIG. 6); type: in vivo; details: TRAUMA+LPT99 group, 10 and 21 days
# [7] = cochlear distribution after IT administration (absorption); type: in vivo, rat; details: LPT99 formulation in hydrogel, detection limit 2 ng/mL=3.2 nM
# [8] = non-GLP maximum tolerated dose (MTD) toxicity study, IP; details: rat, in vivo, Sprague-Dawley rats
# Experimental: A functional observation battery was conducted with LPT99 administered via IP (intraperitoneal) injection in Sprague-Dawley rats. The study was preceded by a non-GLP maximum tolerated dose (MTD) toxicity study, via the same administration and test system, which determined the MTD of LTP99 to be 1000 mg/kg. LPT99 was suspended in vehicle [0.5% w/v methylcellulose and 0.1% v/v TWEEN®80 in Milli-Q water] and administered intraperitoneally to Sprague-Dawley rats as a single dose at the doses of 100 (low—G2/G2TK), 300 (mid—G3/G3TK), and 750 (high—G4/G4TK) mg/kg body weight. The rats in vehicle control groups (G1/G1TK) received the vehicle alone. The dose volume administered was at an equivolume of 10 mL/kg body weight for all groups.
# A GLP acute systemic toxicity study was conducted with LPT99 administered via IP injection in Sprague-Dawley rats. The acute systemic toxicity study was preceded by a non-GLP maximum tolerated dose (MTD) toxicity study, via the same administration and test system, which determined the MTD of LTP99 to be 1000 mg/kg.
# HEI-OC1 cells = experiment: HEI-OC1 cell viability with CisPt; type: cell-based; details: cellular model of CisPt-induced apoptosis
# Experimental: as §1
# The effect of LPT99 on proliferation of non-apoptotic cells was studied. A549 cells were cultured in the presence of LPT99 for up to 6 days; the cell number was monitored by flow cytometry, and doubling time was calculated.
# [9] = system: bacterial reverse mutation; experiment: GLP in vitro bacterial reverse mutation assay (Ames test); type: cell-based
# [10] = physical stability of drug product vials; type: physicochemical; details: for original drug concentration remaining in solution: filtered through 0.2 micron filters
# Experimental: Vials of the drug product were stored at either room temperature or 4° C. for a period greater than three months.
# rats = experiment: GLP auditory safety study after single IT administration; type: in vivo, rat
# Experimental: Gross observations were recorded, and selected organs were weighed.
# [11] = system: CisPt-induced hearing loss; experiment: model of CisPt-induced hearing loss in rats; type: in vivo; details: rat
# Experimental: A model of CisPt-induced hearing loss in rats was evaluated to test the in vivo efficacy of LPT99. Ototoxicity was induced by intraperitoneal (IP) slow infusion of CisPt at doses that compared with those used in human preventions (eg, 10 mg/kg). LPT99 was administered IT 30 minutes before CisPt was given.
# The protective effect of LPT99 was evaluated 3 days after CisPt administration by functional measures, such as auditory brainstem response (ABR) threshold shift, DPOAE, and expression of biomarkers of apoptosis in cochlea and cytocochleograms.
# Sequence of adenosine receptor 3 (A3) (P0DMS8 whole entry): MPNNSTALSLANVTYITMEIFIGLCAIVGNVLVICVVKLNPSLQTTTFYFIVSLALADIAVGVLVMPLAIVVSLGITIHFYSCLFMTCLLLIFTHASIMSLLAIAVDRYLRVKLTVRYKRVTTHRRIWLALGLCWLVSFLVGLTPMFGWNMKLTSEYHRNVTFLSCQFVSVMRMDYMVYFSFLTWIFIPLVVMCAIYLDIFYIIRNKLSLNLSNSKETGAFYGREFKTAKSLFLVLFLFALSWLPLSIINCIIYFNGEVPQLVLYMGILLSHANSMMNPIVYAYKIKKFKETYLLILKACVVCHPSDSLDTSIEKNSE
# Sequence of neurokinin (NK2) (P21452 whole entry): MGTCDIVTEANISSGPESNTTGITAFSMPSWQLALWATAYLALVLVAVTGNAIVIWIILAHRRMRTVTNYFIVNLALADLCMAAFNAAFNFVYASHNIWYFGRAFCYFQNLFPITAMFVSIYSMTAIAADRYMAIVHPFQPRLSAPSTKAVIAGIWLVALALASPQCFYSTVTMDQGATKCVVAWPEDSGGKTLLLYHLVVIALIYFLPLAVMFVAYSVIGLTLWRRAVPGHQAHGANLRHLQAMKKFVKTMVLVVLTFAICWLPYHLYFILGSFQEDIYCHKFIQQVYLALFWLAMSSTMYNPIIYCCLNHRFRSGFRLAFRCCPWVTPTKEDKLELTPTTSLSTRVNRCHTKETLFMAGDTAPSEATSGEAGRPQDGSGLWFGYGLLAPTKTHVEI
# Sequence of serotonin receptor 5HT-2B (P41595 whole entry): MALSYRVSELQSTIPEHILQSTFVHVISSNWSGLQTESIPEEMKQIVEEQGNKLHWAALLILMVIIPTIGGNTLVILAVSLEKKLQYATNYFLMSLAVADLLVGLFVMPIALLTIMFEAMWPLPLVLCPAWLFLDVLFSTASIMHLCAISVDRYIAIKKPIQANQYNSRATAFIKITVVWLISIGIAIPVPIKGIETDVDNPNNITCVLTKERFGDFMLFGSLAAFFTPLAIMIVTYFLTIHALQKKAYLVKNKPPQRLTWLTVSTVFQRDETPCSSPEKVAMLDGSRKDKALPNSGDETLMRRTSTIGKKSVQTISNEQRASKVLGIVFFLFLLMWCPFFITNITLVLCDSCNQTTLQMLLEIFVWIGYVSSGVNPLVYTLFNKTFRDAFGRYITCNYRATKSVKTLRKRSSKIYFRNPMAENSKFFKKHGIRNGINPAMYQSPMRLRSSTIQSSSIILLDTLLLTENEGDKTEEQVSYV
# Sequence of serotonin receptor 5HT-1A (P08908 whole entry): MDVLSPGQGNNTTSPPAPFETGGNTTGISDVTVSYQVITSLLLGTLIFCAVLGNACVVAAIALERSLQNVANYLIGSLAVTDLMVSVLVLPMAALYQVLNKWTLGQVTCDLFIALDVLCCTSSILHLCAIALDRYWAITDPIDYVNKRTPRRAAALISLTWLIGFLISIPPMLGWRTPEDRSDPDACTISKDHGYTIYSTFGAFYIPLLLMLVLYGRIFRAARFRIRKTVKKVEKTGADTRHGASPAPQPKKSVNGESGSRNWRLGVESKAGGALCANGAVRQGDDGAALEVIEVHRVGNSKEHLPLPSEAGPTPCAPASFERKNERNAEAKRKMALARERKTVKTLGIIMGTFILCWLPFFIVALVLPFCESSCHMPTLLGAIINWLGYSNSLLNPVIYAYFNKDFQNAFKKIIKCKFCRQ
# Sequence of neurokinin (NK3) (P29371 whole entry): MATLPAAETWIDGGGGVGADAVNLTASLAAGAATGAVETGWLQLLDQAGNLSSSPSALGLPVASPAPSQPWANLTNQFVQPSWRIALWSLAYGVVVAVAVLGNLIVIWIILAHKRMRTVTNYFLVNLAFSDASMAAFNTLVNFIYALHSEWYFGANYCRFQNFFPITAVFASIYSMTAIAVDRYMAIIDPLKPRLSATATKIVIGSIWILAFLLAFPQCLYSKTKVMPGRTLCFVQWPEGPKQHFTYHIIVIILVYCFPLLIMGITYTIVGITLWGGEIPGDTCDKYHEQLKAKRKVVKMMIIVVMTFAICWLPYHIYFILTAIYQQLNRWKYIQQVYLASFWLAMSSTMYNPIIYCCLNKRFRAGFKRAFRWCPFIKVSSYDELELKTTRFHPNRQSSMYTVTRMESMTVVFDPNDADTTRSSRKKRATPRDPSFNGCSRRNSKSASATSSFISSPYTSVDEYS
# Sequence of opioid (mOP) (P35372 whole entry): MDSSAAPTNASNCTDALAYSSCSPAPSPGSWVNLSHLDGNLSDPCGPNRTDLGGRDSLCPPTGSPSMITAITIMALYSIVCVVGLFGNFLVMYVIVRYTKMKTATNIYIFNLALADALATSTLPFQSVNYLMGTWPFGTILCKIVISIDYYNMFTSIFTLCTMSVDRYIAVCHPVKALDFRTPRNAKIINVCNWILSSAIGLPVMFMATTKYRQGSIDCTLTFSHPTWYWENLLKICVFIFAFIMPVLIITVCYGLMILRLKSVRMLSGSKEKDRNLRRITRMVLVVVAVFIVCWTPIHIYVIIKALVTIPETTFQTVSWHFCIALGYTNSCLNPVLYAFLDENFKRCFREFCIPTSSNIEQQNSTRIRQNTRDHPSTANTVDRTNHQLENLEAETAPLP
smiles,measurement,setting,value
"COc1ccc2[nH]cc(CCNC(=O)CC3C(=O)N(CCc4ccc(Cl)cc4Cl)CC(=O)N3CCc3cccs3)c2c1 (stereo not drawn) [LPT99, 2-(4-(2,4-dichlorophenethyl)-3,6-dioxo-1-(2-(thiophen-2-yl)ethyl)piperazin-2-yl)-N-(2-(5-methoxy-1H-indol-3-yl)ethyl)acetamide]",number of metabolites formed,[1],≤ 9
same,inhibition at 1 µM,opioid (mOP); 1 μM,< 50%
same,inhibition at 10 µM,"opioid (mOP); 10 μM, read-out: affinity (inhibition) mOP",> 50%
same,"in vitro inhibition, 41 of the tested targets",[2],< 50%
same,inhibition at 1 µM,neurokinin (NK3); 1 μM,< 50%
same,inhibition at 10 µM,"neurokinin (NK3); 10 μM, read-out: affinity (inhibition) NK3",> 50%
same,inhibition at 1 µM,neurokinin (NK2); 1 μM,< 50%
same,inhibition at 10 µM,"neurokinin (NK2); 10 μM, read-out: affinity (inhibition) NK2",> 50%
same,inhibition at 1 µM,[3]; 1 μM,< 50%
same,inhibition at 10 µM,"[3]; 10 μM, read-out: affinity (inhibition) A3",> 50%
same,inhibition at 1 µM,[4]; 1 μM,< 50%
same,inhibition at 10 µM,"[4]; 10 μM, read-out: affinity (inhibition) 5HT-1A",> 50%
same,inhibition at 1 µM,[5]; 1 μM,< 50%
same,inhibition at 10 µM,"[5]; 10 μM, read-out: affinity (inhibition) 5HT-2B",> 50%
same,noise-induced ABR Threshold shift,[6],back at basal levels
same,LPT99 in plasma after IT administration,[7],no LPT99 has been found in plasma; also recorded: not detected systemically
same,LPT99 in plasma after IT administration,[7]; listed as LTP99,not detectable in plasma
same,MTD,[8],1000 mg/kg
same,cell viability with CisPt,HEI-OC1 cells,improved cell viability; also recorded: increased cellular viability
same,genetic toxicity (Ames test),[9],no evidence of genetic toxicity
same,time to precipitation,[10]; vials stored at 4 C,approximately 2 months
same,original drug concentration remaining in solution,[10]; vials stored at 4 C,less than 10%
same,original drug concentration remaining in solution,[10]; vials stored at room temperature,100%
same,appearance of solution,"[10]; vials stored at room temperature, greater than three months",remained clear with no evidence of drug precipitation
same,tolerability of single IT dose,"rats; rat, 200, 400, or 797 μM, 30 μL per ear",generally well tolerated
same,mass of injected LPT99 at the no observed adverse effect level (NOAEL),"rats; rat, IT, 30 μl of 797 μM",15 µg
same,auditory brainstem response (hearing loss),"rats; rat, in vivo",no reliable evidence of test-article-related hearing loss
same,cytocochleogram (hair cell loss),"rats; rat, in vivo",no reliable evidence of test-article-related hair cell loss
same,"otoscopic examination of the tympanic membranes (erythema, edema, wounds)","rats; rat, in vivo","no statistically significant changes in erythema, edema, or wounds"
same,"mortalities, clinical abnormalities, body weight, food intake, clinical pathologies","rats; rat, single bilateral IT 30 μL per ear, 14-day study",no LPT99- or gentamicin-related mortalities
same,ABR threshold shift induced by CisPt,"[11]; IT LPT99-CD, 3 days after administration, especially 20, 28, or 40 kHz",attenuated the ABR threshold shift
same,auditory threshold shifts vs CisPt control group,[11]; IT LPT99 in hydrogel plus CisPt,significantly lower auditory threshold shifts
same,protection against CisPt-induced hearing loss,"[11]; IT LPT99 solution (hydrogel), 63 μg/mL [100 μM] and 300 μg/mL [478 μM]",protected against CisPt-induced hearing loss; also recorded: protective effects against CisPt-induced hearing loss
